What was measured:
HvNTR2 [1] = biological target: T1, HvNTR2 (Hordeum vulgare, UniProt A9LN30); assay: bleaching of yellow HvNTR2 crystals (FAD reduction); format: biochemical; settings: 10 mM NADPH, 30 min, in crystals; NADPH not seen in the structure
T1 construct: gene NTR2; recombinant, E. coli Rosetta (DE3); FAD domain 1-126 and 255-331, NADPH domain 127-254; model residues 6-323 (A), 5-323 (B); homodimer

HvNTR2 [2] = biological target: T1, HvNTR2; assay: X-ray crystal structure, […] A; format: binding; settings: crystals pH 3.5, 0.1 M citrate; one FAD per subunit in FAD domain, tightly bound

T1 sequence (A9LN30 1-331): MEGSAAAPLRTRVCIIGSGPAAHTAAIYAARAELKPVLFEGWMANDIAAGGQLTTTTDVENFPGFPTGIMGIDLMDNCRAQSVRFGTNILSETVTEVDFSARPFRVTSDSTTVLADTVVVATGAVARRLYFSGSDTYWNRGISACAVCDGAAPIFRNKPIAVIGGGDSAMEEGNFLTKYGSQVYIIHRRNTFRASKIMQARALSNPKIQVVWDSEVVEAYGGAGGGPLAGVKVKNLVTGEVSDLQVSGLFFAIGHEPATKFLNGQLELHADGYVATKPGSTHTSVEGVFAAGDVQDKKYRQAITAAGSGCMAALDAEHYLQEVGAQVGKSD

NC(=O)C1=CN([C@@H]2O[C@H](COP(=O)(O)OP(=O)(O)OC[C@H]3O[C@@H](n4cnc5c(N)ncnc54)[C@H](OP(=O)(O)O)[C@@H]3O)[C@@H](O)[C@H]2O)C=CC1 [NADPH]
bleaching of yellow HvNTR2 crystals (FAD reduction) (HvNTR2 [1]): FAD can still be reduced by NADPH as judged from the bleaching

Cc1cc2nc3c(=O)[nH]c(=O)nc-3n(C[C@H](O)[C@H](O)[C@H](O)COP(=O)(O)OP(=O)(O)OC[C@H]3O[C@@H](n4cnc5c(N)ncnc54)[C@H](O)[C@@H]3O)c2cc1C [FAD]
X-ray crystal structure, 2.6 A (HvNTR2 [2]): One FAD molecule with well defined electron density

— publication PMC2733882, “Structure of Hordeum vulgare NADPH-dependent thioredoxin reductase 2. Unwinding the reaction mechanism” (Acta Crystallographica Section D: Biological Crystallography, 2009)
